Structures can show the parent of a compound that is named as a salt. Calls of active or inactive are those of the source. On the calls: in the data inactive means no Kd found up to 30 µM.
Experiments:
[1] = biological target: Serine/threonine-protein kinase PAK 6 (Homo sapiens, UniProt Q9NQU5)
[2] = biological target: Dual specificity testis-specific protein kinase 2 (Homo sapiens, UniProt Q96S53)
UMP-CMP kinase = biological target: T1, UMP-CMP kinase (Homo sapiens, UniProt P30085)
T1 sequence (P30085 whole entry): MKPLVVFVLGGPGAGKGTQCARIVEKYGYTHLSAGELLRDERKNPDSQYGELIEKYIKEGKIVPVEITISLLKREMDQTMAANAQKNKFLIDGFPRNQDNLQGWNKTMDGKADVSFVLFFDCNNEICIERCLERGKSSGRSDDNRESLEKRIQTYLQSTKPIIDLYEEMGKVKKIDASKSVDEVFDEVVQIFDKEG

[3] = biological target: T2, Tyrosine-protein kinase Mer (Homo sapiens, UniProt Q12866)
T2 sequence (Q12866 whole entry): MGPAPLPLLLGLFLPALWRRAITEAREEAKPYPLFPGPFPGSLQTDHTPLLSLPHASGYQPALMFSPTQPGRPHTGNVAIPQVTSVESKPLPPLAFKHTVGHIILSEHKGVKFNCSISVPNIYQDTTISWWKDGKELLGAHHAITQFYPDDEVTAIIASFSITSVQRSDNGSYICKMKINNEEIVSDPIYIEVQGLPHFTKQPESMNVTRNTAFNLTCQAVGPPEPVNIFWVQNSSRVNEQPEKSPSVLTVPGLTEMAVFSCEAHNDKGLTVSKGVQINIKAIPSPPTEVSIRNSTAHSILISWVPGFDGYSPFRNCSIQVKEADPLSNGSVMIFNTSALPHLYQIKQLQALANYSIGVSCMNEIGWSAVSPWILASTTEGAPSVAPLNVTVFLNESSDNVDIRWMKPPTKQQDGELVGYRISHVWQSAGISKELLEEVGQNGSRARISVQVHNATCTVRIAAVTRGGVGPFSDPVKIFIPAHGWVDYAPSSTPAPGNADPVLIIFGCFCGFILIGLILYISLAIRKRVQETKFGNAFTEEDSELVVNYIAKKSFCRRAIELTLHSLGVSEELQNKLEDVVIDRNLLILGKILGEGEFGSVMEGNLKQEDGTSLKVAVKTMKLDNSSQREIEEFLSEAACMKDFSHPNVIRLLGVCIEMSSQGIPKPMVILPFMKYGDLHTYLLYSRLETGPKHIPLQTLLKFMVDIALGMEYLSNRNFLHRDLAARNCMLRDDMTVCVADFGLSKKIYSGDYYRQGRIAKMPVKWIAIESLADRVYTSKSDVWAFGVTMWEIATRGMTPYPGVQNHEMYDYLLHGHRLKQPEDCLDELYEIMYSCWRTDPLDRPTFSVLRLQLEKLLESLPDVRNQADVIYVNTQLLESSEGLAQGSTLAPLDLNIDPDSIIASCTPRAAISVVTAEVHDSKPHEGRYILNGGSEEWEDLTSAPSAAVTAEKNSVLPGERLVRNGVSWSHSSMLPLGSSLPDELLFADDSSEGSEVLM

[4] = biological target: MAP kinase-activated protein kinase 3 (Homo sapiens, UniProt Q16644)
[5] = biological target: Serine/threonine-protein kinase pim-2 (Homo sapiens, UniProt Q9P1W9)
[6] = biological target: T3, Protein kinase C zeta type (Homo sapiens, UniProt Q05513)
T3 sequence (Q05513 whole entry): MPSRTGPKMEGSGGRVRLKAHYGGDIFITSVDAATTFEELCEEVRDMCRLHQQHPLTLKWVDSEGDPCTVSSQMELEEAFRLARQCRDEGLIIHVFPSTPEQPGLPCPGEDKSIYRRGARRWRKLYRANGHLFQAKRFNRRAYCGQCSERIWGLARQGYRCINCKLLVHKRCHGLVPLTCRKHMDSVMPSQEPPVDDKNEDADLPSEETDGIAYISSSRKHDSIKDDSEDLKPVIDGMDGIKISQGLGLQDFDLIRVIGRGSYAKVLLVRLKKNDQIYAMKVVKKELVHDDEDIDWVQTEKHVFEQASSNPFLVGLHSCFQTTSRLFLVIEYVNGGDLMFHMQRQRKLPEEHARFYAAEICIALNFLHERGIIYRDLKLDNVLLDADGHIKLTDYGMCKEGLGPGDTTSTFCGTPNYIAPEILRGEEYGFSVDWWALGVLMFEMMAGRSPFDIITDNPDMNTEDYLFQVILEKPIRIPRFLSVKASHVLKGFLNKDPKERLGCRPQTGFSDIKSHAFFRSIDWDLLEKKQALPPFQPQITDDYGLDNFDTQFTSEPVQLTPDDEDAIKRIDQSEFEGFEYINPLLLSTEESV

[7] = biological target: Uncharacterized aarF domain-containing protein kinase 5 (Homo sapiens, UniProt Q3MIX3)
[8] = biological target: Serine/threonine-protein kinase Nek7 (Homo sapiens, UniProt Q8TDX7)
Misshapen-like kinase 1 = Misshapen-like kinase 1 (Homo sapiens, UniProt Q8N4C8)
Misshapen-like kinase 1, sequence (Q8N4C8 whole entry): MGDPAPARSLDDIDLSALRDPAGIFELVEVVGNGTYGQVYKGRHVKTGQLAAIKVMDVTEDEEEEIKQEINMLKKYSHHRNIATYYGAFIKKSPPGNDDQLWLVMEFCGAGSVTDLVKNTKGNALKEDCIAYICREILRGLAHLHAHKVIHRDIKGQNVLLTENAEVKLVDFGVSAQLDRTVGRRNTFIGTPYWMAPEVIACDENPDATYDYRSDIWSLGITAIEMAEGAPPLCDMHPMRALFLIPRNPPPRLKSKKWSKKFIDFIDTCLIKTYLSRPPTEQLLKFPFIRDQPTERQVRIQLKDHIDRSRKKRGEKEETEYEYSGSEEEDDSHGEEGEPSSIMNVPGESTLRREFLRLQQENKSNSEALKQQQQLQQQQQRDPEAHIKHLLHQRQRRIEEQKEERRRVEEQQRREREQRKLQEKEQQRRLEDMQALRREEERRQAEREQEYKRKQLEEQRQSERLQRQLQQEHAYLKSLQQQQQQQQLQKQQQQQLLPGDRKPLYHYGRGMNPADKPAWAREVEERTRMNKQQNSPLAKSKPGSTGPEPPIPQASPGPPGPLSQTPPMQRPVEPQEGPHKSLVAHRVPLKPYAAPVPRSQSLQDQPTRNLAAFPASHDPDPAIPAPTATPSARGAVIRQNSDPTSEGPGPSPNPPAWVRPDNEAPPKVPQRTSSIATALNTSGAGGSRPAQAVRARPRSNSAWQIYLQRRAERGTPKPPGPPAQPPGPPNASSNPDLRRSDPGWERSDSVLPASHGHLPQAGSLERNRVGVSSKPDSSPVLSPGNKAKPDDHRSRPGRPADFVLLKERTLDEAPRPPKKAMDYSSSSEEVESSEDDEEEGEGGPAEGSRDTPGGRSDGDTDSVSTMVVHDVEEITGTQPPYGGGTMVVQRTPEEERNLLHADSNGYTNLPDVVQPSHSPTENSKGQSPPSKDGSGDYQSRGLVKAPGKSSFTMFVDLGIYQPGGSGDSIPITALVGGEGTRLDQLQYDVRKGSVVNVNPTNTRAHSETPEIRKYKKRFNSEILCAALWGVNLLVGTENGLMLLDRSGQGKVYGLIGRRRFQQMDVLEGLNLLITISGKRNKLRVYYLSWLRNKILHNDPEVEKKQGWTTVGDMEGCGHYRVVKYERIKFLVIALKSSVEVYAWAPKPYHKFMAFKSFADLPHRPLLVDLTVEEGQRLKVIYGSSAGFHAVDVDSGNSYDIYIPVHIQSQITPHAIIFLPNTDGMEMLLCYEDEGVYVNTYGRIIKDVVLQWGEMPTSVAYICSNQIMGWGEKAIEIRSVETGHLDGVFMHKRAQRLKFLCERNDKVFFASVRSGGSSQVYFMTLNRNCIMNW

Dual specificity testis-specific protein kinase 2, sequence (Q96S53 whole entry): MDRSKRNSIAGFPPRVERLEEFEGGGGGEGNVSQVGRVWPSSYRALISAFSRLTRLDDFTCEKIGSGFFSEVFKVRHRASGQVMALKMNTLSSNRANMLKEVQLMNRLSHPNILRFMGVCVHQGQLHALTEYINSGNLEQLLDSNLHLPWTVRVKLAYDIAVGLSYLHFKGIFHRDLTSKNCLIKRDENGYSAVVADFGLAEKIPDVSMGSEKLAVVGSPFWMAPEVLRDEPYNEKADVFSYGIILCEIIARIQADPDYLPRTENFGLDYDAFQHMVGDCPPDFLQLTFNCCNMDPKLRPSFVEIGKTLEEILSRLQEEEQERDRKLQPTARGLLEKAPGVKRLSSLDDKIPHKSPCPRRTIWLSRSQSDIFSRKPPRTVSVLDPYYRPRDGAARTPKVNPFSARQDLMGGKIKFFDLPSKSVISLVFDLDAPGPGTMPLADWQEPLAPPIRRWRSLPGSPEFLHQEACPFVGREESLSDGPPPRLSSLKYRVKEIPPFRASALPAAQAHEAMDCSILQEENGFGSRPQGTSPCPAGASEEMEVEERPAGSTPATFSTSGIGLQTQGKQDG
MAP kinase-activated protein kinase 3, sequence (Q16644 whole entry): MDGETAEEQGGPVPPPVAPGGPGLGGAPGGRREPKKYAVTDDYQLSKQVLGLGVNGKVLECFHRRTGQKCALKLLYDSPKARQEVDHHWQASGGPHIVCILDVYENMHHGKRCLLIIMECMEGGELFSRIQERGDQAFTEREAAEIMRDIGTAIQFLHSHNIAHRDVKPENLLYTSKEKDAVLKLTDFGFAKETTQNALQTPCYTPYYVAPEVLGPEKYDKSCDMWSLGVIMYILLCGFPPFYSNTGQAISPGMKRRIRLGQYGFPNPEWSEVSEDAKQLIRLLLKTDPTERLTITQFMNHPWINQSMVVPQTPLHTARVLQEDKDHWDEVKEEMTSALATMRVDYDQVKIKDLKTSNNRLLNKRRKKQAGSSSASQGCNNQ
Uncharacterized aarF domain-containing protein kinase 5, sequence (Q3MIX3 whole entry, the tested form may be a part): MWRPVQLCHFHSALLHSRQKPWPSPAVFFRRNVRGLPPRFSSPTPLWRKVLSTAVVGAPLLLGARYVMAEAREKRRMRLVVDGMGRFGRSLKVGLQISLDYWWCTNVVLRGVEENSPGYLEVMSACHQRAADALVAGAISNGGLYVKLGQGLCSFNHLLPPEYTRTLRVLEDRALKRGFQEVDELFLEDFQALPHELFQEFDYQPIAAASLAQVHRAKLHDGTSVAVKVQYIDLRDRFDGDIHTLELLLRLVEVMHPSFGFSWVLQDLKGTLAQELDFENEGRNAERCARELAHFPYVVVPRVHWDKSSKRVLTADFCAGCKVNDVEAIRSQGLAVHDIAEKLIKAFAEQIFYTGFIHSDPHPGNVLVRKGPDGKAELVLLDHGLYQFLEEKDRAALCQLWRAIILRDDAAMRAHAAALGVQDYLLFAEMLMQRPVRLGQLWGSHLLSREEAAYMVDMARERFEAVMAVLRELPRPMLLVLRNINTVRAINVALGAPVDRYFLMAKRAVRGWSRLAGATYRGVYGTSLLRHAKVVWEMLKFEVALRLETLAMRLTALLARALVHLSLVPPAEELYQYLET
Serine/threonine-protein kinase PAK 6, sequence (Q9NQU5 whole entry): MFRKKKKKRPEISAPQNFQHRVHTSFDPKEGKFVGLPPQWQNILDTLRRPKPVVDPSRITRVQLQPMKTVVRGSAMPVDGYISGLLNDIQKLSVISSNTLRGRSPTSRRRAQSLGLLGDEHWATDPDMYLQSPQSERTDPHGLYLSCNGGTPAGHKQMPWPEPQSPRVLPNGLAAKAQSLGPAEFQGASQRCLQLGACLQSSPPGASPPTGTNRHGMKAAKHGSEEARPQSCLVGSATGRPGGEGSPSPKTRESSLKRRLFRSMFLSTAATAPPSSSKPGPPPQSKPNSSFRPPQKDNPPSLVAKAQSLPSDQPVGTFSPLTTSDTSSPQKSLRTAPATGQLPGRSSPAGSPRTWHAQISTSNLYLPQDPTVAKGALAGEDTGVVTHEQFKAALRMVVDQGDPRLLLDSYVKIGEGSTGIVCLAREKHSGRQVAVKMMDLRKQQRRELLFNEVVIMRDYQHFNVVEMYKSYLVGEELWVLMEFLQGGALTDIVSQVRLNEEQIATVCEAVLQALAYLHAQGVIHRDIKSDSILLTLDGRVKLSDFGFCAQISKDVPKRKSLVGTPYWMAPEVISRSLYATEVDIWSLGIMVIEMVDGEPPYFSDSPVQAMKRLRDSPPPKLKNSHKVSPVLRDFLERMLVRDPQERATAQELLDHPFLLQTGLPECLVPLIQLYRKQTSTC
Serine/threonine-protein kinase pim-2, sequence (Q9P1W9 whole entry): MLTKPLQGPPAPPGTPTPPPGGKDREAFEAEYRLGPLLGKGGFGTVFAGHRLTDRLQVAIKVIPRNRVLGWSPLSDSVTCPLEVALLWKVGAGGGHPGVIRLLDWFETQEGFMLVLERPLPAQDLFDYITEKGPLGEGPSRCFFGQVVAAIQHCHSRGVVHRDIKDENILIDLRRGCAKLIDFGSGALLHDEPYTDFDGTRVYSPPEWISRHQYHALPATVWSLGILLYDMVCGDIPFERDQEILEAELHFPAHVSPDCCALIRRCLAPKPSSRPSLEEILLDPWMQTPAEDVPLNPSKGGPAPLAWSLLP
Serine/threonine-protein kinase Nek7, sequence (Q8TDX7 whole entry): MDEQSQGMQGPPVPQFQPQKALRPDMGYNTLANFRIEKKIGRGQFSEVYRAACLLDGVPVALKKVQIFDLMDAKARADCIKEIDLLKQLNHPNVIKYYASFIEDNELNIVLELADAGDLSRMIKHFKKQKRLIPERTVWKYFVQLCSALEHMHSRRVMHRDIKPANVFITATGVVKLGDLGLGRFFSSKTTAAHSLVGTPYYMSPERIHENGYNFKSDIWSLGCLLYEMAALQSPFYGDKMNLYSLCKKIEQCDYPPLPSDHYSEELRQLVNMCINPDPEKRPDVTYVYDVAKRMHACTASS

Row | SMILES | Kd [1] | Kd [2] | Kd (UMP-CMP kinase) | Kd [3] | Kd [4] | Kd [5] | Kd [6] | Kd [7] | Kd [8] | Kd (Misshapen-like kinase 1)
1 | C=CC(=O)N1CCC[C@H](n2c(=O)n(-c3ccc(Oc4ccccc4)cc3)c3c(N)ncnc32)C1 | > 30 µM (inactive) | > 30 µM (inactive) | > 30 µM (inactive) | > 30 µM (inactive) | > 30 µM (inactive) | > 30 µM (inactive) |  |  |  | 
2 | Cc1nc2cc(-c3nn(C(C)C)c4ncnc(N)c34)ccc2o1 | > 30 µM (inactive) | 0.018 µM |  | > 30 µM (inactive) | > 30 µM (inactive) |  | > 30 µM (inactive) | > 30 µM (inactive) |  | 
3 | Nc1ncnc2c1c(-c1cccc(OCc3ccccc3)c1)cn2[C@H]1C[C@@H](CN2CCC2)C1 [AEW-541] | > 30 µM (inactive) |  |  | > 30 µM (inactive) | > 30 µM (inactive) | > 30 µM (inactive) |  |  | > 30 µM (inactive) | > 30 µM (inactive)
4 | Cc1csc(-c2nnc(Nc3ccc(Oc4ncccc4-c4ccnc(N)n4)cc3)c3ccccc23)c1 [AMG-900] |  | > 30 µM (inactive) | > 30 µM (inactive) | > 30 µM (inactive) | > 30 µM (inactive) | > 30 µM (inactive) |  | > 30 µM (inactive) |  | 
5 | Cn1cnc2c(F)c(Nc3ccc(Br)cc3F)c(C(=O)NOCCO)cc21 [BINIMETINIB] |  |  | > 30 µM (inactive) | > 30 µM (inactive) | > 30 µM (inactive) | > 30 µM (inactive) |  | > 30 µM (inactive) |  | 
6 | COc1c(OCCCN2CCOCC2)ccc2c1N=C(NC(=O)c1cnc(N)nc1)N1CCN=C21 [COPANLISIB] | > 30 µM (inactive) |  |  | > 30 µM (inactive) |  |  |  | > 30 µM (inactive) |  | > 30 µM (inactive)
7 | COCC(=O)NC/C=C/c1ccc2ncnc(Nc3ccc(Oc4ccc(C)nc4)c(C)c3)c2c1 [CP-724714] | > 30 µM (inactive) | > 30 µM (inactive) |  | > 30 µM (inactive) | > 30 µM (inactive) | > 30 µM (inactive) | > 30 µM (inactive) | > 30 µM (inactive) |  | 
8 | C#Cc1cccc(Nc2ncnc3cc(OC)c(OCCCCCCC(=O)NO)cc23)c1 [CUDC-101] | > 30 µM (inactive) |  |  |  | > 30 µM (inactive) | > 30 µM (inactive) | > 30 µM (inactive) | > 30 µM (inactive) |  | > 30 µM (inactive)
9 | CCS(=O)(=O)N1CCN(c2ccc(Nc3ncc(C(N)=O)c(NC4CC4)n3)cc2)CC1 [Cerdulatinib Hydrochloride] | > 30 µM (inactive) |  |  |  | > 30 µM (inactive) | > 30 µM (inactive) | > 30 µM (inactive) | > 30 µM (inactive) |  | > 30 µM (inactive)
10 | O=C(Nc1cc(C(F)(F)F)cc(C(F)(F)F)c1)c1cc(Cl)ccc1O [IMD-0354] | > 30 µM (inactive) |  |  | > 30 µM (inactive) |  |  |  | > 30 µM (inactive) | > 30 µM (inactive) | > 30 µM (inactive)
11 | CNC(=O)c1nn(C)c2c1C(C)(C)Cc1cnc(Nc3ccc(N4CCN(C)CC4)cc3)nc1-2 [MILCICLIB] | > 30 µM (inactive) | > 30 µM (inactive) |  | > 30 µM (inactive) |  | > 30 µM (inactive) | > 30 µM (inactive) | > 30 µM (inactive) | > 30 µM (inactive) | > 30 µM (inactive)
12 | NC1(c2ccc(-c3nc4ccn5c(=O)[nH]nc5c4cc3-c3ccccc3)cc2)CCC1 [MK-2206] | > 30 µM (inactive) |  | > 30 µM (inactive) | > 30 µM (inactive) | > 30 µM (inactive) |  |  |  | > 30 µM (inactive) | > 30 µM (inactive)
13 | FC(F)(F)c1ccc(/C=C/c2nc(COc3ccc(CCCCn4ccnn4)cc3)co2)cc1 [MUBRITINIB] |  | > 30 µM (inactive) |  | > 30 µM (inactive) |  | > 30 µM (inactive) |  | > 30 µM (inactive) |  | 1.77 µM (active)
14 | COc1ncc(-c2ccc3nccc(-c4ccnnc4)c3c2)cc1NS(=O)(=O)c1ccc(F)cc1F [OMIPALISIB] |  |  | > 30 µM (inactive) |  | > 30 µM (inactive) |  | > 30 µM (inactive) | > 30 µM (inactive) | > 30 µM (inactive) | > 30 µM (inactive)
15 | CCOc1cc2ncc(C#N)c(Nc3ccc(F)c(Cl)c3)c2cc1NC(=O)/C=C/CN(C)C [PELITINIB] | > 30 µM (inactive) |  | > 30 µM (inactive) | > 30 µM (inactive) | > 30 µM (inactive) | > 30 µM (inactive) |  | > 30 µM (inactive) | > 30 µM (inactive) | > 30 µM (inactive)
16 | CC(=O)NCC(=O)N1[C@@H]2CC[C@H]1c1ccc(Nc3ncc(C(F)(F)F)c(NC4CCC4)n3)cc12 [PF-03814735] |  | > 30 µM (inactive) |  | > 30 µM (inactive) |  |  |  |  |  | 
17 | CO[C@H]1C[C@@H]2CC[C@@H](C)[C@@](O)(O2)C(=O)C(=O)N2CCCC[C@H]2C(=O)O[C@H]([C@H](C)C[C@@H]2CC[C@@H](OP(C)(C)=O)[C@H](OC)C2)CC(=O)[C@H](C)/C=C(\C)[C@@H](O)[C@@H](OC)C(=O)[C@H](C)C[C@H](C)/C=C/C=C/C=C/1C [RIDAFOROLIMUS] |  | > 30 µM (inactive) |  | > 30 µM (inactive) |  | > 30 µM (inactive) | > 30 µM (inactive) | > 30 µM (inactive) | > 30 µM (inactive) | 
18 | O=c1[nH]ccc2cc(OC3CCNCC3)ccc12 [SAR-407899 FREE BASE] | > 30 µM (inactive) | > 30 µM (inactive) | > 30 µM (inactive) | > 30 µM (inactive) |  | > 30 µM (inactive) | > 30 µM (inactive) | > 30 µM (inactive) | > 30 µM (inactive) | > 30 µM (inactive)
19 | CO[C@H]1C[C@@H]2CC[C@@H](C)[C@@](O)(O2)C(=O)C(=O)N2CCCC[C@H]2C(=O)O[C@H]([C@H](C)C[C@@H]2CC[C@@H](O)[C@H](OC)C2)CC(=O)[C@H](C)/C=C(\C)[C@@H](O)[C@@H](OC)C(=O)[C@H](C)C[C@H](C)/C=C/C=C/C=C/1C [SIROLIMUS] |  | > 30 µM (inactive) | > 30 µM (inactive) | > 30 µM (inactive) |  |  | > 30 µM (inactive) | > 30 µM (inactive) |  | > 30 µM (inactive)
20 | CCS(=O)(=O)c1cccc(-c2cc(C(=O)NC3CCN(C)CC3)c(C)c3[nH]c4ncc(C)cc4c23)c1 [TAK-901] | > 30 µM (inactive) | > 30 µM (inactive) |  | > 30 µM (inactive) |  | > 30 µM (inactive) | > 30 µM (inactive) |  |  | 
21 | COc1cc2c(Nc3ccc(Cl)c(Cl)c3F)ncnc2cc1OC[C@@H]1C[C@@H]2CN(C)C[C@@H]2C1 [TESEVATINIB] | > 30 µM (inactive) | > 30 µM (inactive) |  | > 30 µM (inactive) | 0.002 µM |  |  | > 30 µM (inactive) | > 30 µM (inactive) | > 30 µM (inactive)
22 | C[C@@H](NC(=O)c1ncnc(N)c1Cl)c1ncc(C(=O)Nc2cc(C(F)(F)F)c(Cl)cn2)s1 [TOVORAFENIB] | > 30 µM (inactive) | > 30 µM (inactive) |  | > 30 µM (inactive) |  | > 30 µM (inactive) | > 30 µM (inactive) | > 30 µM (inactive) |  | > 30 µM (inactive)
